Assay results from ChEMBL document CHEMBL5584312, “Insight into the Interaction of Humulus lupulus L. Specialized Metabolites and Gastrointestinal Bitter Taste Receptors: In Vitro Study in STC-1 Cells and Molecular Docking” (J Nat Prod, 2024).
Values after ≈ are worked out from the molar mass of the structure shown. Active and inactive are the calls of the source. The calls are words filed in the database; no cut-off is given here.

Tests used:
[1] = Cytotoxicity against mouse STC-1 cells assessed as reduction in cell viability at 5 to 10 ug/ml after 2 to 24 hrs by MTT assay; type: toxicity, cell-based; conditions: dose lower 5 µg/ml, time lower 2 hrs, dose upper 10 µg/ml, time upper 24 hrs
[2] = test system: STC-1; experiment: Anti-obesity activity in mouse STC-1 cells assessed as increase in GLP-1 secretion at 10 ug/ml incubated for 120 mins by ELISA; type: functional, cell-based; conditions: dose 10.0 µg/ml
[3] = test system: STC-1; experiment: Anti-obesity activity in mouse STC-1 cells assessed as increase in CCK secretion at 10 ug/ml incubated for 120 mins by EIA; type: functional, cell-based; conditions: dose 10.0 µg/ml
[4] = test system: STC-1; experiment: Anti-obesity activity in mouse STC-1 cells assessed as increase in Tas2r105 mRNA expression level at 5 to 10 ug/ml incubated for 2 hrs by RT-qPCR analysis; type: functional, cell-based; conditions: dose 5-10 µg/ml
[5] = test system: STC-1; experiment: Anti-obesity activity in mouse STC-1 cells assessed as increase in Tas2r119 mRNA expression level at 5 to 10 ug/ml incubated for 2 hrs by RT-qPCR analysis; type: functional, cell-based; conditions: dose 5-10 µg/ml
[6] = test system: STC-1; experiment: Anti-obesity activity in mouse STC-1 cells assessed as increase in Tas2r120 mRNA expression level at 5 to 10 ug/ml incubated for 2 hrs by RT-qPCR analysis; type: functional, cell-based; conditions: dose 5-10 µg/ml
[7] = test system: STC-1; experiment: Anti-obesity activity in mouse STC-1 cells assessed as increase in Tas2r138 mRNA expression level at 5 to 10 ug/ml incubated for 2 hrs by RT-qPCR analysis; type: functional, cell-based; conditions: dose 5-10 µg/ml
[8] = test system: STC-1; experiment: Anti-obesity activity in mouse STC-1 cells assessed as increase in […] mRNA expression level at 5 to 10 ug/ml incubated for 2 hrs by RT-qPCR analysis; type: functional, cell-based; conditions: dose 5-10 µg/ml
[9] = test system: STC-1; experiment: Agonist activity at Tas2r in mouse STC-1 cells assessed as increase in intracellular calcium level measured every 10 sec for 5 mins by Fluo-4-AM dye based fluorescence analysis; type: cell-based; conditions: filed as agonist, dose 5-10 µg/ml
[10] = Cytotoxicity against mouse STC-1 cells assessed as reduction in cell viability at 50 ug/ml after 2 to 24 hrs by MTT assay; type: toxicity, cell-based; conditions: time 2-24 hrs, dose 50 µg/ml
[11] = Cytotoxicity against mouse STC-1 cells assessed as reduction in cell viability after 2 hrs by MTT assay; type: toxicity, cell-based
[12] = Cytotoxicity against mouse STC-1 cells assessed as reduction in cell viability after 24 hrs by MTT assay; type: toxicity, cell-based
[13] = Cytotoxicity against mouse STC-1 cells assessed as cell viability at 10 ug/ml after 24 hrs by MTT assay relative to control; type: toxicity, cell-based; conditions: at 10 µg/mL, read-out: Activity
[14] = test system: STC-1; experiment: Anti-obesity activity in mouse STC-1 cells assessed as increase in GLP-1 secretion incubated for 120 mins by ELISA; type: functional, cell-based; conditions: dose 5-10 µg/ml
[15] = Anti-obesity activity in mouse STC-1 cells assessed as increase in GLP-1 secretion by measuring fold change at 5 to 10 ug/ml incubated for 120 mins by ELISA; type: functional; conditions: dose 5-10 µg/ml, 2 h
[16] = Anti-obesity activity in mouse STC-1 cells assessed as GLP-1 secretion at 5 ug/ml incubated for 120 mins by ELISA (reference value: 13.29 +/- 1.3 pg/ml); type: functional; conditions: dose 5 µg/ml, 2 h
[17] = Anti-obesity activity in mouse STC-1 cells assessed as GLP-1 secretion at 10 ug/ml incubated for 120 mins by ELISA (reference value: 13.29 +/- 1.3 pg/ml); type: functional; conditions: dose 10 µg/ml, 2 h
[18] = Cytotoxicity against mouse STC-1 cells assessed as reduction in cell viability at 5 to 50 ug/ml after 2 to 24 hrs by MTT assay; type: toxicity, cell-based; conditions: dose lower 5 µg/ml, time lower 2 hrs, dose upper 50 µg/ml, time upper 24 hrs
[19] = test system: STC-1; experiment: Anti-obesity activity in mouse STC-1 cells assessed as increase in GLP-1 secretion at 5 to 10 ug/ml incubated for 120 mins by ELISA; type: functional, cell-based; conditions: dose 5-10 µg/ml

SMILES	Activity [1]	Activity [2]	Activity [3]	Activity [4]	Activity [5]	Activity [6]	Activity [7]	Activity [8]	Activity [9]	Activity [10]	IC50 at 2 h [11]	IC50 at 24 h [12]	viability at 24 h, 10 ug/ml [13]	Activity [14]	fold change (FC) [15]	Activity [16]	Activity [17]	Activity [18]	Activity [19]
CC(C)=CCC1=C(O)C(C(=O)C(C)C)=C(O)C(CC=C(C)C)(CC=C(C)C)C1=O	Non-Toxic	Active	Active	Active	Active	Active	Active	Active	Dose-Dependent Effect	–	–	–	–	–	–	–	–	–	–
COc1cc(O)c(CC=C(C)C)c(O)c1C(=O)/C=C/c1ccc(O)cc1 [XANTHOHUMOL]	–	–	Active	–	–	–	Active	–	Dose-Dependent Effect	Toxic	35.3 µg/mL (≈ 99.6 µM)	8 µg/mL (≈ 22.6 µM)	35%	Dose-Dependent Effect	~2	20.39 pg/mL	28.39 pg/mL	–	–
CC(C)=CCC1=C(O)[C@@](O)(CC=C(C)C)C(=O)C(C(=O)C(C)C)=C1O	–	–	–	–	–	–	Active	Active	Dose-Dependent Effect	–	–	–	–	–	–	–	–	Non-Toxic	inactive
